From patent US5968912A, “Methods for immunosuppressing” (Immune Modulation, Inc., priority 1997, dated 1999)
Several values for one entry are separate records, joined by “and”; a condition that tells them apart may be missing. Equal values may be shown once. Entries after “also recorded” stand apart in the source; their conditions may differ.

Legend:
[1] = system: mononuclear leukocytes (Two-way MLR); assay: Two-way mixed leukocyte reaction (MLR), 3H-thymidine incorporation; assay type: cell-based, human
IL-2 = IL-2 production in PHA-stimulated PBMC cultures; assay type: cell-based, human; design: % Inhibition of IL-2 production: concentration or dose not given beside the values
Experimental: (§1) Production of autocrine growth factors (IL-2, IL-4, IL-10 and Interferon-gamma) in PHA-stimulated human PBMC cultures
(§2) Culture supernatants were collected at the times indicated and frozen at -20° C. At the end of 96 hr., all supernatants were assayed by enzyme immunoassay for the presence of the cytokines: interleukin-2, -4, -10 and interferon (IFN)-gamma. Results were expressed in pg/mL concentration of cytokine and % inhibition of cytokine production.

Interferon-gamma = Interferon-gamma production in PHA-stimulated PBMC cultures; assay type: cell-based, human; design: % Inhibition of IFN-γ production: concentration or dose not given beside the values
Experimental: as §1, §2

[2] = system: tetanus toxoid-specific T-cell proliferation (PBMC); assay: cells; assay type: cell-based, human
[3] = system: anti-CD3-induced T-cell proliferation (PBMC); assay: Anti-CD3-induced T-cell proliferation; assay type: cell-based, human; details: anti-CD3 1 ng/mL
Experimental: Anti-T cell receptor (TCR)/CD3 induced T cell proliferation
PBMC of a healthy volunteer were cultured in 96-well microtiter plates at 2×10^5 cells/well. […] Cultures were incubated for 3 days at 37° C. in a 5% CO2 incubator. Proliferative response was determined by incorporation of ^3 H-thymidine.
Anti-CD3 mAb was used at 1 ng/mL concentration.

[4] = system: NK cell activity (YAC-I cells as target); assay: NK cell cytotoxicity assay, cells of pretreated donor mice; assay type: in vivo, mouse (C57BL/6); details: spleen, effector/target 100:1
Experimental: (§3) Elimination of endogenous and inducible NK cell activity from the cell donor mice (C57BL/6)
(§4) Six- to ten-week old C57BL/6 mice were treated for 24 hours orally or intravenously with HE-33. Orally-treated mice received 400 mg/kg twice a day (Bid), and intravenously treated mice received a single 100 mg/kg i.v.
NK Cell cytotoxicity assay: At the end of the 24 hour pre-treatment with HE-33, all treated mice and control, non-treated mice (i.e., mice treated with vehicle, PBS) were sacrificed by cervical dislocation. Spleens and lymph nodes were removed and single-cell suspension of pooled spleen and lymph nodes from mice in each group of donor were prepared in RPMI-1640 supplemented with 10% fetal bovine serum (FBS) and 1% penicillin/streptomycin. Target cells were ^51 Cr-labeled Moloney leukemia virus-induced lymphoma (YAC) tumor cells. Different effector:target cell ratios were cultured in triplicate samples in U-bottomed microtiter plates for 4 hours at 37° C. in a humidified atmosphere containing 5% CO2. The microtiter plates were then centrifuged, and 100-μL aliquots of supernatants were assayed for ^51 Cr release. Results were expressed as percent lysis and percent suppression of lysis. The method of Ojo-Amaize, E. et. al., Scand. Journal of Immunology, 1978, 7: 297-306, was used for the NK assays.

[5] = system: GVHD in (B6 x C3H)F1 mice; assay: GVHD in (B6 x C3H)F1 recipients of cells from pretreated C57BL/6 donor mice; assay type: in vivo, mouse
Experimental: Generation of F1 Recipient Mice: Male mice of inbred strains, C57BL/6 (H-2^b haplotype) were mated with female mice of inbred strains, C3 H/j (H-2^k haplotype). The resulting hybrids (C57BL/6×C3 H/j)F1 were used as recipients of the B6 spleen cells.
as §3, §4
Irradiation of Recipient (B6 ×C3 H)F1 Mice: Ten- to twelve- week old (B6 ×C3 H)F1 mice were sublethally irradiated with a Cobalt-60 gamma source at 450 rads in a single dose.
Induction of GVHD: GVHD was induced in irradiated (B6 ×C3 H)F1 mice by the intravenous injection of 5×10^7 donor B6 (H-2^b) spleen and lymph node cells.

CCCN(CCC)c1ncnc2c1ncn2[C@@H]1O[C@@H]2COP(=O)(O)O[C@H]2[C@H]1O [HE-33, N^6,N^6 -di-n-Propyl-c-AMP]
IC50 ([1]; Homo sapiens, Leukocyte, read-out: IC50, drug concentration capable of inducing a 50% inhibition): 100 to 1000 nM | inhibition at 0.01 µM ([1]; Homo sapiens, Leukocyte, 0.01 μM): 28% | inhibition at 0.1 µM ([1]; Homo sapiens, Leukocyte, 0.1 μM): 40% | inhibition at 1 µM ([1]; Homo sapiens, Leukocyte, 1 μM): 81% | inhibition at 10 µM ([1]; Homo sapiens, Leukocyte, 10 μM): 96% | inhibition at 100 µM ([1]; Homo sapiens, Leukocyte, 100 μM): 99.2% | Inhibitory capacity on two-way MLR, in words ([1]; two-way MLR): comparable to that of cyclosporin (CsA) | % Inhibition of IL-2 production (IL-2; 24 hours): 0% | IL-2 production (IL-2; 24 hours): 418 pg/mL | % Inhibition of IL-2 production (IL-2; 48 hours): 76% | IL-2 production (IL-2; 48 hours): 148 pg/mL | % Inhibition of IL-2 production (IL-2; 72 hours): 70% | IL-2 production (IL-2; 72 hours): 51 pg/mL | % Inhibition of IL-2 production (IL-2; 96 hours): 0% | IL-2 production (IL-2; 96 hours): 48 pg/mL | % Inhibition of IFN-γ production (Interferon-gamma; 24 hours): 0% | IFN-γ production (Interferon-gamma; 24 hours): 980 pg/mL | % Inhibition of IFN-γ production (Interferon-gamma; 48 hours): 9% | IFN-γ production (Interferon-gamma; 48 hours): 6146 pg/mL | % Inhibition of IFN-γ production (Interferon-gamma; 72 hours): 0% | IFN-γ production (Interferon-gamma; 72 hours): 5390 pg/mL | % Inhibition of IFN-γ production (Interferon-gamma; 96 hours): 0% | IFN-γ production (Interferon-gamma; 96 hours): 6105 pg/mL | Proliferation ([2]; 1 μg/mL): 358 CPM | Proliferation ([2]; 10 μg/mL): 94 CPM | inhibition at 1 µg/mL ([2]; Homo sapiens, T-cell, 1 μg/mL): 65% | Proliferation ([3]; 10 μM): 289 CPM | Proliferation ([3]; 100 μM): 43 CPM | inhibition at 10 µM ([3]; Homo sapiens, T-cell, 10 μM): 77% | inhibition at 100 µM ([3]; Homo sapiens, T-cell, 100 μM): 97% | Percent Lysis (NK cell activity) ([4]; 100 mg/kg IV): 14% | Percent Lysis (NK cell activity) ([4]; 400 mg/kg (Bid) oral): 5% | Percent Suppression of NK cell activity ([4]; 400 mg/kg (Bid) oral): ~80% and 76% | Mean survival time (MST) of the mice that died ([5]; FIG. 2): 46 days | Recipients that had died ([5]; by 55 days post cell transfer, FIG. 2): 30% | Recipients that had died ([5]; by day 30 post cell transfer, FIG. 2, P<0.0000001): none | Recipients that had died ([5]; day 33 post cell transfer, FIG. 3): 50% | Prevention of GVHD by route of administration, in words ([5]; oral versus intravenous): the oral route was better than the i.v. route; also recorded: Both the oral and intravenous routes of administration of HE-33 were effective in preventing GVHD
